Test results: patent US9200001B2, “Triazolyl PDE10 inhibitors” (Merck Sharp & Dohme Corp., priority 2011, dated 2015)

target: human PDE10A2 (Homo sapiens (Human), UniProt Q9Y233); test: PDE10 fluorescence polarization (IMAP FP) inhibition assay; format: biochemical; conditions: FAM-labeled cAMP 50 nM, room temperature, read-out: PDE10a Ki
Procedure: The activity of the compounds in accordance with the present invention as PDE10 inhibitors may be readily determined without undue experimentation using a fluorescence polarization (FP) methodology that is well known in the art (Huang, W., et al., J. Biomol Screen, 2002, 7: 215).
In a typical experiment the PDE10 inhibitory activity of the compounds of the present invention was determined in accordance with the following experimental method. PDE10A2 was amplified from human fetal brain cDNA (Clontech, Mountain View, Calif.) using a forward primer corresponding to nucleotides 56-77 of human PDE10A2 (Accession No. AF127480, Genbank Identifier 4894716), containing a Kozak consensus sequence, and a reverse primer corresponding to nucleotides 2406-2413 of human PDE10A2 (Accession No. AF127480, Genbank Identifier 4894716). Amplification with Easy-A polymerase (Stratagene, La Jolla, Calif.) was 95° C. for 2 minutes followed by thirty three cycles of 95° C. for 40 seconds, 55° C. for 30 seconds, and 72° C. for 2 minutes 48 seconds. Final extension was 72° C. for 7 minutes. The PCR product was TA cloned into pcDNA3.2-TOPO (Invitrogen, Carlsbad, Calif.) according to standard protocol. AD293 cells with 70-80% confluency were transiently transfected with human PDE10A2/pcDNA3.2-TOPO using Lipofectamine 2000 according to manufacturer specifications (Invitrogen, Carlsbad, Calif.). Cells were harvested 48 hours post-transfection and lysed by sonication (setting 3, 10×5 sec pulses) in a buffer containing 20 mM HEPES, 1 mM EDTA and protease inhibitor cocktail (Roche). Lysate was collected by centrifugation at 75,000×g for 20 minutes. Supernatant containing the cytoplasmic fraction was used for evaluation of PDE10A2 activity. The fluorescence polarization assay for cyclic nucleotide phosphodiesterases was performed using an IMAP® FP kit supplied by Molecular Devices, Sunnyvale, Calif. (product # R8139). IMAP® technology has been applied previously to phosphodiesterase assays (Huang, W., et al., J. Biomol Screen, 2002, 7: 215). Assays were performed at room temperature in 384-well microtiter plates with an incubation volume of 20.2 μL. Solutions of test compounds were prepared in DMSO and serially diluted with DMSO to yield 8 μL of each of 10 solutions differing by 3-fold in concentration, at 32 serial dilutions per plate. 100% inhibition is determined using a known PDE10 inhibitor, which can be any compound that is present at 5,000 times its Ki value in the assay described as follows, such as papaverine (see Siuciak, et al. Neuropharmacology (2006) 51:386-396; Becker, et al. Behav Brain Res (2008) 186(2):155-60; Threlfell, et al., J Pharmacol Exp Ther (2009) 328(3):785-795), 2-{4-[pyridin-4-yl-1-(2,2,2-trifluoroethyl)-1H-pyrazol-3-yl]phenoxymethyl}quinoline succinic acid or 2-[4-(1-methyl-4-pyridin-4-yl-1H-pyrazol-3-yl)-phenoxymethyl]quinoline succinic acid (see Schmidt, et al. J Pharmacol Exp Ther (2008) 325:681-690; Threlfall, et al., J Pharmacol Exp Ther (2009) 328(3): 785-795). 0% of inhibition is determined by using DMSO (1% final concentrations).
A Labcyte Echo 555 (Labcyte, Sunnyvale, Calif.) is used to dispense 200 nL from each well of the titration plate to the 384 well assay plate. A solution of enzyme (1/1600 dilution from aliquots; sufficient to produce 20% substrate conversion) and a separate solution of FAM-labeled cAMP PDE from Molecular Devices (product # R7506), at a final concentration of 50 nM are made in the assay buffer (10 mM Tris HCl, pH 7.2, 10 mM MgCl2, 0.05% NaN3 0.01% Tween-20, and 1 mM DTT). The enzyme and the substrate are then added to the assay plates in two consecutive additions of 10 μL, and then shaken to mix. The reaction is allowed to proceed at room temperature for 30 minutes. A binding solution is then made from the kit components, comprised of 80% Solution A, 20% Solution B and binding reagent at a volume of 1600 the total binding solution. […]

Sequence of human PDE10A2 (Q9Y233 267-1055): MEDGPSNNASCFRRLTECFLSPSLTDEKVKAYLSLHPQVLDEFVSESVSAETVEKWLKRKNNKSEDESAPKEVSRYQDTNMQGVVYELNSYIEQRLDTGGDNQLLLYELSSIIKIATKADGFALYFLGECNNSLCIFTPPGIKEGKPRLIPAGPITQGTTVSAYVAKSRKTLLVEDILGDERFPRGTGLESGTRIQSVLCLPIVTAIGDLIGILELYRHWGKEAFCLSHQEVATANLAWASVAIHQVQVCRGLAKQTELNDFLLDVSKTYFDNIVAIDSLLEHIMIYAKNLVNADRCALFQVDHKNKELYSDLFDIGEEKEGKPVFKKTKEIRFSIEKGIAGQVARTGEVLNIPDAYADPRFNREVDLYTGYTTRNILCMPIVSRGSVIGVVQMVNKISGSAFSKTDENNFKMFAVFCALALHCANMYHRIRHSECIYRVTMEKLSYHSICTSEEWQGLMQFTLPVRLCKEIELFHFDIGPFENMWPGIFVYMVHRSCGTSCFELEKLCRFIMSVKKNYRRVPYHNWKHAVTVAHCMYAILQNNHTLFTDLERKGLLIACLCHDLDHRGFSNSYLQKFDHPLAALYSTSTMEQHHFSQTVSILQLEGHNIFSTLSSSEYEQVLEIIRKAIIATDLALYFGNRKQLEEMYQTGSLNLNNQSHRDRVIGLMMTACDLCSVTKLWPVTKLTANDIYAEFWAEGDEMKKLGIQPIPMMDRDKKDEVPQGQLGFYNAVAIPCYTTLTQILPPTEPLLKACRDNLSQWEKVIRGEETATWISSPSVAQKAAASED

Row | SMILES | Ki
1 | Cc1nc([C@H]2C[C@@H]2c2nc3ncccc3n2C)cc(-n2nc(C)nc2C)n1 (stereo in doubt) [Cpd 80, 2-{2-[6-(3,5-dimethyl-1H-1,2,4-triazol-1-yl)-2-methylpyrimidin-4-yl]cyclopropyl}-1-methyl-1H-imidazo[4,5-b]pyridine] | > 75 nM
2 | Cc1nc([C@@H]2C[C@H]2c2nc3ccccc3n2CC2CCCO2)cc(-n2nc(C)nc2C)n1 (stereo in doubt) [Cpd 75, 2-{2-[6-(3,5-dimethyl-1H-1,2,4-triazol-1-yl)-2-methylpyrimidin-4-yl]cyclopropyl}-1-(tetrahydrofuran-2-ylmethyl)-1H-benzimidazole] | 13 nM
3 | CO[C@@H](C)c1nc(C)nn1-c1cc([C@@H]2C[C@H]2c2nc3ccccc3n2C)nc(C)n1 [Cpd 95, 2-[(1R,2R)-2-(6-{5-[(1S)-1-methoxyethyl]-3-methyl-1H-1,2,4-triazol-1-yl}-2-methylpyrimidin-4-yl)cyclopropyl]-1-methyl-1H-benzimidazole] | 2.1 nM
4 | Cc1nc(C2CC2c2nnc(C)o2)cc(-n2nc(C)nc2C)n1 (centres unmarked) [Cpd 39, 3,5-dimethyl-1-(2-methyl-6-(2-(5-methyl-1,3,4-oxadiazol-2-yl)cyclopropyl)pyrimidin-4-yl)-1H-1,2,4-triazol-4-ium] | 918 nM
5 | Cc1nc([C@@H]2C[C@H]2c2nc3ccccc3n2C)cc(-n2nc(C)nc2[C@@H]2CCCO2)n1 [Cpd 101, 1-methyl-2-[(1R,2R)-2-(2-methyl-6-{3-methyl-5-[(2S)-tetrahydrofuran-2-yl]-1H-1,2,4-triazol-1-yl}pyrimidin-4-yl)cyclopropyl]-1H-benzimidazole] | 5.8 nM
6 | Cc1nc([C@H]2C[C@@H]2c2nc3ccccc3n2C)cc(-n2nc(C)nc2O)n1 (stereo in doubt) [Cpd 78, 3-methyl-1-{2-methyl-6-[2-(1-methyl-1H-benzimidazol-2-yl)cyclopropyl]pyrimidin-4-yl}-1H-1,2,4-triazol-5-ol] | > 75 nM
7 | Cc1nc([C@H]2C[C@@H]2c2nc3ccccc3n2C)cc(-n2nc(C)nc2CN(C)C)n1 (stereo in doubt) [Cpd 87, N,N-dimethyl-1-(3-methyl-1-{2-methyl-6-[2-(1-methyl-1H-benzimidazol-2-yl)cyclopropyl]pyrimidin-4-yl}-1H-1,2,4-triazol-5-yl)methanamine] | 10.6 nM
8 | Cc1nc([C@@H]2C[C@H]2c2nc3ccccc3n2CCN(C)C)cc(-n2nc(C)nc2C)n1 (stereo in doubt) [Cpd 72, 2-(2-{2-[6-(3,5-dimethyl-1H-1,2,4-triazol-1-yl)-2-methylpyrimidin-4-yl]cyclopropyl}-1H-benzimidazol-1-yl)-N,N-dimethylethanamine] | 14.2 nM
9 | Cc1nc(C2CC2c2nc3ccccc3[nH]2)cc(-n2nc(C)nc2C)n1 (centres unmarked) [Cpd 41, 2-(2-(6-(3,5-dimethyl-1H-1,2,4-triazol-1-yl)-2-methylpyrimidin-4-yl)cyclopropyl)-1H-benzo[d]imidazole] | 6.8 nM
10 | Cc1nc([C@H]2C[C@@H]2c2nc3ccccc3s2)cc(-n2nc(C)nc2C)n1 (relative stereo) [Cpd 129, trans-2-{2-[6-(3,5-dimethyl-1H-1,2,4-triazol-1-yl)-2-methylpyrimidin-4-yl]cyclopropyl}-1,3-benzothiazole] | 43 nM

Other lines, results leading:

Row | Ki | SMILES
11 | > 75 nM | Cc1nc([C@H]2C[C@@H]2c2nc3ccccc3n2CCF)cc(-n2nc(C)nc2C)n1 [Cpd 102, 2-{(1S,2S)-2-[6-(3,5-dimethyl-1H-1,2,4-triazol-1-yl)-2-methylpyrimidin-4-yl]cyclopropyl}-1-(2-fluoroethyl)-1H-benzimidazole]
12 | 13.8 nM | Cc1nc([C@@H]2C[C@H]2c2nc3ccccc3n2C)cc(-n2nc(C)nc2C(C)(C)C)n1 [Cpd 100, 2-{(1R,2R)-2-[6-(5-tert-butyl-3-methyl-1H-1,2,4-triazol-1-yl)-2-methylpyrimidin-4-yl]cyclopropyl}-1-methyl-1H-benzimidazole]
13 | 0.068 nM | COc1ccc(Cc2nc(C)nn2-c2cc([C@H]3C[C@H]3c3ccc4ncccc4n3)nc(C)n2)cc1OC (relative stereo) [Cpd 34, Cis-2-(2-(6-(5-(3,4-dimethoxybenzyl)-3-methyl-1H-1,2,4-triazol-1-yl)-2-methylpyrimidin-4-yl)cyclopropyl)-1,5-naphthyridine]
14 | 0.88 nM | Cc1nc(C)n(-c2cc([C@@H]3C[C@H]3c3nc4ccccc4n3C)nc(C(C)(C)O)n2)n1 [Cpd 131, 2-(4-(3,5-dimethyl-1H-1,2,4-triazol-1-yl)-6-((1R,2R)-2-(1-methyl-1H-benzo[d]imidazol-2-yl)cyclopropyl)pyrimidin-2-yl)propan-2-ol]
15 | 2.9 nM | Cc1nc([C@H]2C[C@@H]2c2nc3ccccc3n2C)cc(-n2nc(C)nc2C2CC2)n1 (stereo in doubt) [Cpd 85, 2-{2-[6-(5-cyclopropyl-3-methyl-1H-1,2,4-triazol-1-yl)-2-methylpyrimidin-4-yl]cyclopropyl}-1-methyl-1H-benzimidazole]
16 | 0.028 nM | COc1ccc(Cc2nc(C)nn2-c2cc(CCc3ccc4ccccc4n3)nc(C)n2)nc1OC [Cpd 8, 2-(2-(6-(5-((5,6-dimethoxypyridin-2-yl)methyl)-3-methyl-1H-1,2,4-triazol-1-yl)-2-methylpyrimidin-4-yl)ethyl)quinoline]
17 | 0.14 nM | COc1ccc(Cc2nc(C)nn2-c2cc(CCc3ccc(C)cn3)nc(C)n2)cc1OC [Cpd 5, 4-(5-(3,4-dimethoxybenzyl)-3-methyl-1H-1,2,4-triazol-1-yl)-2-methyl-6-(2-(5-methylpyridin-2-yl)ethyl)pyrimidine]
18 | 0.77 nM | CNc1nc([C@@H]2C[C@H]2c2nc3ccccc3n2C)cc(-n2nc(C)nc2C)n1 [Cpd 62, 4-(3,5-dimethyl-1H-1,2,4-triazol-1-yl)-N-methyl-6-[(1R,2R)-2-(1-methyl-1H-benzimidazol-2-yl)cyclopropyl]pyrimidin-2-amine]
19 | 9.8 nM | COc1ccc(Cc2nc(C)nn2-c2cc(C3CC3c3nnc(C)s3)nc(C)n2)cc1OC (centres unmarked) [Cpd 29, 2-(2-(6-(5-(3,4-dimethoxybenzyl)-3-methyl-1H-1,2,4-triazol-1-yl)-2-methylpyrimidin-4-yl)cyclopropyl)-5-methyl-1,3,4-thiadiazole]
20 | 2 nM | Cc1nc([C@@H]2C[C@H]2c2nc3ccccc3n2C)cc(-n2nc(Br)nc2C)n1 [Cpd 88, 2-{(1R,2R)-2-[6-(3-bromo-5-methyl-1H-1,2,4-triazol-1-yl)-2-methylpyrimidin-4-yl]cyclopropyl}-1-methyl-1H-benzimidazole]
21 | 2.9 nM | Cc1nc([C@H]2C[C@@H]2c2nc3ccccc3n2CCF)cc(-n2nc(C)nc2C)n1 [Cpd 103, 2-{(1S,2S)-2-[6-(3,5-dimethyl-1H-1,2,4-triazol-1-yl)-2-methylpyrimidin-4-yl]cyclopropyl}-1-(2-fluoroethyl)-1H-benzimidazole]
22 | 5.3 nM | COCc1ncnn1-c1cc([C@@H]2C[C@H]2c2nc3ccccc3n2C)nc(C)n1 [Cpd 94, 2-[(1R,2R)-2-{6-[5-(methoxymethyl)-1H-1,2,4-triazol-1-yl]-2-methylpyrimidin-4-yl}cyclopropyl]-1-methyl-1H-benzimidazole]
23 | 14.2 nM | Cc1cc(-n2nc(C)nc2C)cc([C@@H]2C[C@H]2c2nc3ccccc3n2C)n1 (relative stereo) [Cpd 108, trans-2-{2-[4-(3,5-dimethyl-1H-1,2,4-triazol-1-yl)-6-methylpyridin-2-yl]cyclopropyl}-1-methyl-1H-benzimidazole]
